# Test results from US20050020557A1, “Method for treating diseases using HSP90-inhibiting agents in combination with enzyme inhibitors” (Kosan Biosciences, Inc., priority 2003, published 2005).
# How the values were obtained:
# ErbB2 protein [1] = assay: ErbB2 protein expression in SKBr3 cells; format: cell-based, human
# ErbB2 protein [2] = assay: ErbB2 protein expression in glioma cells; format: cell-based
# [3] = clinical trials; twice-weekly regimen; sole agent; cited from earlier work
# [4] = system: SKBr-3 cells (human breast cancer cells); assay: Cell viability (MTS) drug combination assay, combination index by median effect analysis, SKBr-3 cells; format: cell-based; settings: combination of enzyme inhibitor with 17-AAG, CI<1 synergism, CI=1 additivity, CI>1 antagonism; for CI value, 17-AAG Pre-Administration: 17-AAG 24 h before enzyme inhibitor (48 h); for CI value, 17-AAG Post-Administration: enzyme inhibitor 24 h, then 17-AAG for 48 h
# Method: Human colon adenocarcinoma cell line, DLD-1, and human breast adenocarcinoma cell line, SKBr-3, were obtained from American Type Culture Collection (manassas, Va.). […] Other cytotoxic agents were purchased commercially from suppliers such as Sigma Chemical Co. (St. Louis, Mo.) and Sequoia Research Products (Oxford, UK). Cells were seeded in duplicate in 96-well microtiter plates at a density of 5,000 cells per well and allowed to attach overnight. […] Cell viability was determined using the MTS assay (Promega). […] Based on the IC50 values of each individual drug, combined drug treatment was designed at constant ratios of two drugs, i.e., equivalent to the ratio of their IC50. Two treatment schedules were used: In one schedule, the cells were exposed to 24 hours of 17-AAG or 17-DMAG. The drug was then added to the cells and incubated for 48 hours. […] Cell viability was determined by the MTS assay. Synergism, additivity or antagonism was determined by median effect analysis using the combination index (CI) calculated using Calcusyn (Biosoft, Cambridge, UK). […] The “enhancing” effect of two drugs can also be determined.
# [5] = system: DLD-1 cells (human colorectal cancer cells); assay: Cell viability (MTS) drug combination assay, combination index by median effect analysis, DLD-1 cells; format: cell-based; settings: combination of enzyme inhibitor with 17-AAG, CI<1 synergism, CI=1 additivity, CI>1 antagonism
# Method: Human colon adenocarcinoma cell line, DLD-1, and human breast adenocarcinoma cell line, SKBr-3, were obtained from American Type Culture Collection (manassas, Va.). […] 17-DMAG and 17-AAG were obtained using published procedures. Other cytotoxic agents were purchased commercially from suppliers such as Sigma Chemical Co. (St. Louis, Mo.) and Sequoia Research Products (Oxford, UK).
# Cells were seeded in duplicate in 96-well microtiter plates at a density of 5,000 cells per well and allowed to attach overnight. […] Cell viability was determined using the MTS assay (Promega). For the drug combination assay, cells were seeded in duplicate in 96-well plates (5,000 cells/well). […] Based on the IC50 values of each individual drug, combined drug treatment was designed at constant ratios of two drugs, i.e., equivalent to the ratio of their IC50. Two treatment schedules were used: In one schedule, the cells were exposed to 24 hours of 17-AAG or 17-DMAG. The drug was then added to the cells and incubated for 48 hours. […] Cell viability was determined by the MTS assay.
# Synergism, additivity or antagonism was determined by median effect analysis using the combination index (CI) calculated using Calcusyn (Biosoft, Cambridge, UK). […] The “enhancing” effect of two drugs can also be determined.
SMILES,expression of ErbB2 protein (ErbB2 protein [1]),expression of ErbB2 protein (ErbB2 protein [2]),MTD (maximum tolerated dose) [3],"CI value, 17-AAG Pre-Administration [4]","CI value, 17-AAG Post-Administration [4]","CI value, 17-AAG Pre-Administration ([5]; 17-AAG 24 h before enzyme inhibitor (48 h))","CI value, 17-AAG Post-Administration ([5]; enzyme inhibitor 24 h, then 17-AAG for 48 h)"
"C=CCNC1=C2C[C@@H](C)C[C@H](OC)[C@H](O)[C@@H](C)/C=C(\C)[C@H](OC(N)=O)[C@@H](OC)/C=C\C=C(/C)C(=O)NC(=CC1=O)C2=O [17-AAG, 17-(allylamino)-17-desmethoxygeldanamycin]",reduced the expression of ErbB2 protein,reduced the expression of ErbB2 protein,about 220 mg/m2,,,,
CC(/C=C/C(=O)NO)=C\[C@@H](C)C(=O)c1ccc(N(C)C)cc1 [Trichostatin A],,,,1.16 ± 0.02,0.91 ± 0.007,,
COc1cc2ncnc(Nc3ccc(F)c(Cl)c3)c2cc1OCCCN1CCOCC1 [Iressa],,,,0.77 ± 0.29,0.67 ± 0.02,0.76 ± 0.37,0.41 ± 0.01
